# Results published in US5880258A (dated 1999).
# *1 amine or outer side, *2 acyl side, *3 side chain or, on linkers, in order; H or OH if unused. Where a SMILES comes first, the peptide text is derived from it. Where no end group is shown, it is not given here. [ ]: non-standard residue; d: D form. The star is where a group is joined. sY = N[C@@H](Cc1ccc(OS(=O)(=O)O)cc1)C(=O)O; X2 = CC(C)C[C@H](N*)C(=O)NP(=O)(O)O; Asu = N[C@@H](CCCCCC(=O)O)C(=O)O; dAsu = N[C@H](CCCCCC(=O)O)C(=O)O; NH(3-hydroxypropyl) = OCCCN*; Suc = O=C(CCC(=O)[*:2])[*:1]; Leu(ol) = CC(C)C[C@H](N)CO; X1 = NS(=O)(=O)CCN*; Ava = NCCCCC(=O)O; βAla = NCCC(=O)O
# Molecular target: thrombin (Homo sapiens, UniProt P00734)
# Assay: anti-thrombin activity; clotting assay (coagulation time with fibrinogen as substrate)
# Format: biochemical
# Parameters: 100 μl of human-thrombin prepared at 10 NIH units/ml in aforesaid buffer
# Conditions: for IC50: concentration corresponding to 50 thrombin units, human-thrombin 10 NIH units/ml, human-fibrinogen 6 mg/ml, read-out: 50% Inhibition Concentration (converted); for Potency: calculated using the definition that HV-1 (54-65) potency is 1
# Description: Measurement of anti-thrombin activity was done by looking at anti-coagulant activity as an index using fibrinogen as the substrate. That is, the compounds were dossolved in 200 μl of 0.1 mM Tris-HCl buffer (pH7.5) containing 0.1% polyethyleneglycol-6000, 100 μl of human-thrombin prepared at 10 NIH units/ml in aforesaid buffer, were added 200 μl of human-fibrinogen (Sigma) prepared at 6 mg/ml in aforesaid tris-hydrochloride buffer were added, and the coagulation time of the reaction mixtures were measured. For measuring of coagulation times, coagulation time analyzer (Amelung KC10A) was used. Obtained values were converted into units by using a previously prepared thrombin standard curve. Graphs were prepared by plotting the converted values on the vertical axis, and the concentrations of the compounds on the horizontal axis. In the graphs, the thrombin unit was defined as 100 at a compound concentration of 0. The concentration of compounds corresponding to 50 units were defined as 50% inhibitory concentrations of compounds.
Compound,IC50 [µM],Potency
CC[C@H](C)[C@H](NC(=O)[C@@H]1CCCN1C(=O)[C@H](CCC(=O)O)NC(=O)[C@H](Cc1ccccc1)NC(=O)CCC(=O)O)C(=O)N1CCC[C@H]1C(=O)N[C@@H](CCC(=O)O)C(=O)N[C@@H](Cc1ccc(O)cc1)C(=O)N[C@@H](Cc1ccc(O)cc1)C(=O)NCCCCC(=O)O [(L)] (Suc-FEPIPEYY[Ava]-OH),12.4,–
"CC[C@H](C)[C@H](NC(=O)[C@@H]1CCCN1C(=O)[C@H](CCC(=O)O)NC(=O)[C@H](Cc1ccccc1)NC(=O)CCC(=O)O)C(=O)N1CCC[C@H]1C(=O)N[C@@H](CCC(=O)O)C(=O)N[C@@H](Cc1ccc(OS(=O)(=O)O)cc1)C(=O)N[C@@H](Cc1ccc(OS(=O)(=O)O)cc1)C(=O)O [Sulfated form of (I), Suc--Phe--Glu--Pro--Ile--Pro--Glu--Tyr(SO3 H)--Tyr(SO3 H)--OH] (Suc-FEPIPE[sY][sY]-OH)",3.1,1.62
"CC[C@H](C)[C@H](NC(=O)[C@H](CCC(=O)O)NC(=O)[C@H](CCC(=O)O)NC(=O)[C@H](Cc1ccccc1)NC(=O)[C@H](CC(=O)O)NC(=O)CN)C(=O)N1CCC[C@H]1C(=O)N[C@@H](Cc1ccc(O)cc1)C(=O)N[C@@H](Cc1ccc(OS(=O)(=O)O)cc1)C(=O)N[C@@H](Cc1ccc(O)cc1)C(=O)N[C@@H](CC(C)C)C(=O)N[C@@H](CCC(N)=O)C(=O)O (single isomer, unassigned) [Sulfated form of (B) peak 2, Gly--Asp--Phe--Glu--Glu--Ile--Pro--Tyr--Tyr(SO3 H)--Tyr--Leu--Gln]",0.63,–
CC[C@H](C)[C@H](NC(=O)[C@@H]1CCCN1C(=O)[C@H](CCC(=O)O)NC(=O)[C@H](Cc1ccccc1)NC(=O)CCC(=O)O)C(=O)N1CCC[C@H]1C(=O)N[C@@H](CCC(=O)O)C(=O)N[C@@H](Cc1ccc(O)cc1)C(=O)N[C@@H](Cc1ccc(O)cc1)C(=O)N[C@H](CO)CC(C)C [(P)] (Suc-FEPIPEYY[Leu(ol)]),82.7,–
GDFEEIPEYYLQ [(A)],9.78,–
CC[C@H](C)[C@H](NC(=O)[C@@H]1CCCN1C(=O)[C@H](CCC(=O)O)NC(=O)[C@H](Cc1ccccc1)NC(=O)CCC(=O)O)C(=O)N1CCC[C@H]1C(=O)N[C@@H](CCC(=O)O)C(=O)N[C@@H](Cc1ccc(O)cc1)C(=O)N[C@@H](Cc1ccc(O)cc1)C(=O)N[C@@H](CC(C)C)C(=O)N[C@H](CCCCCC(=O)OC)C(=O)OC [(U)] (Suc-FEPIPEYYL[dAsu](OMe)-OMe),32.3,–
CC[C@H](C)[C@H](NC(=O)[C@@H]1CCCN1C(=O)[C@H](CCC(=O)O)NC(=O)[C@H](Cc1ccccc1)NC(=O)CCC(=O)O)C(=O)N1CCC[C@H]1C(=O)N[C@@H](CCC(=O)O)C(=O)N[C@@H](Cc1ccc(O)cc1)C(=O)N[C@@H](Cc1ccc(O)cc1)C(=O)N[C@@H](CCCCCC(=O)OC)C(=O)OC [(O)] (Suc-FEPIPEYY[Asu](OMe)-OMe),26,–
"CC[C@H](C)[C@H](NC(=O)[C@H](CCC(=O)O)NC(=O)[C@H](CCC(=O)O)NC(=O)[C@H](Cc1ccccc1)NC(=O)[C@H](CC(=O)O)NC(=O)CN)C(=O)N1CCC[C@H]1C(=O)N[C@@H](Cc1ccc(O)cc1)C(=O)N[C@@H](Cc1ccc(OS(=O)(=O)O)cc1)C(=O)N[C@@H](Cc1ccc(OS(=O)(=O)O)cc1)C(=O)N[C@@H](CC(C)C)C(=O)N[C@@H](CCC(N)=O)C(=O)O (single isomer, unassigned) [Sulfated form of (B) peak 1, Gly--Asp--Phe--Glu--Glu--Ile--Pro--Tyr--Tyr(SO3 H)--Tyr(SO3 H)--Leu--Gln]",0.291,–
CC[C@H](C)[C@H](NC(=O)[C@@H]1CCCN1C(=O)[C@H](CCC(=O)O)NC(=O)[C@H](Cc1ccccc1)NC(=O)CCC(=O)O)C(=O)N1CCC[C@H]1C(=O)N[C@@H](CCC(=O)O)C(=O)N[C@@H](Cc1ccc(O)cc1)C(=O)N[C@@H](Cc1ccc(O)cc1)C(=O)N[C@@H](CC(C)C)C(=O)N[C@H](CCCCCC(N)=O)C(N)=O [(W)] (Suc-FEPIPEYYL[dAsu](NH2)-NH2),24.3,–
"CC[C@H](C)[C@H](NC(=O)[C@@H]1CCCN1C(=O)[C@H](CCC(=O)O)NC(=O)[C@H](Cc1ccccc1)NC(=O)[C@H](CC(=O)O)NC(=O)CNC(=O)CCC(=O)O)C(=O)N1CCC[C@H]1C(=O)N[C@@H](Cc1ccc(OS(=O)(=O)O)cc1)C(=O)N[C@@H](Cc1ccc(OS(=O)(=O)O)cc1)C(=O)N[C@@H](Cc1ccc(OS(=O)(=O)O)cc1)C(=O)N[C@@H](CC(C)C)C(=O)N[C@@H](CCC(N)=O)C(=O)O [Sulfated form of (E), Suc--Gly--Asp--Phe--Glu--Pro--Ile--Pro--Tyr(SO3 H)--Tyr(SO3 H)--Tyr(SO3 H)--Leu--Gln--OH] (Suc-GDFEPIP[sY][sY][sY]LQ-OH)",0.0807,44.41
CC[C@H](C)[C@H](NC(=O)[C@@H]1CCCN1C(=O)[C@H](CCC(=O)O)NC(=O)[C@H](Cc1ccccc1)NC(=O)CCC(=O)O)C(=O)N1CCC[C@H]1C(=O)N[C@@H](CCC(=O)O)C(=O)N[C@@H](Cc1ccc(O)cc1)C(=O)N[C@@H](Cc1ccc(O)cc1)C(=O)N[C@@H](CC(C)C)C(=O)NCCS(N)(=O)=O [(S)] (Suc-FEPIPEYYL-X1),72.4,–
CC[C@H](C)[C@H](NC(=O)[C@@H]1CCCN1C(=O)[C@H](CCC(=O)O)NC(=O)[C@H](Cc1ccccc1)NC(=O)CCC(=O)O)C(=O)N1CCC[C@H]1C(=O)N[C@@H](CCC(=O)O)C(=O)N[C@@H](Cc1ccc(O)cc1)C(=O)N[C@@H](Cc1ccc(O)cc1)C(=O)N[C@@H](CC(C)C)C(=O)NP(=O)(O)O [(Y)] (Suc-FEPIPEYY-X2),114,–
CC[C@H](C)[C@H](NC(=O)[C@@H]1CCCN1C(=O)[C@H](CCC(=O)O)NC(=O)[C@H](Cc1ccccc1)NC(=O)CCC(=O)O)C(=O)N1CCC[C@H]1C(=O)N[C@@H](CCC(=O)O)C(=O)N[C@@H](Cc1ccc(O)cc1)C(=O)N[C@@H](Cc1ccc(O)cc1)C(=O)O [(I)] (Suc-FEPIPEYY-OH),17.3,0.83
"CC[C@H](C)[C@H](NC(=O)[C@@H]1CCCN1C(=O)[C@H](CCC(=O)O)NC(=O)[C@H](Cc1ccccc1)NC(=O)CCC(=O)O)C(=O)N1CCC[C@H]1C(=O)N[C@@H](CCC(=O)O)C(=O)N[C@@H](Cc1ccc(OS(=O)(=O)O)cc1)C(=O)N[C@@H](Cc1ccc(OS(=O)(=O)O)cc1)C(=O)NCCC(=O)O [Sulfated form of (K), Suc--Phe--Glu--Pro--Ile--Pro--Glu--Tyr(SO3 H)--Tyr(SO3 H)--NH(CH2)2 COOH] (Suc-FEPIPE[sY][sY][βAla]-OH)",4.65,1.02
CC[C@H](C)[C@H](NC(=O)[C@@H]1CCCN1C(=O)[C@H](CCC(=O)O)NC(=O)[C@H](Cc1ccccc1)NC(=O)CCC(=O)O)C(=O)N1CCC[C@H]1C(=O)N[C@@H](CCC(=O)O)C(=O)N[C@@H](Cc1ccc(O)cc1)C(=O)N[C@@H](Cc1ccc(O)cc1)C(N)=O [(J)] (Suc-FEPIPEYY-NH2),85.1,0.07
GDFEEIPYYYLQ [(B)],9,–
CC[C@H](C)[C@H](NC(=O)[C@@H]1CCCN1C(=O)[C@H](CCC(=O)O)NC(=O)[C@H](Cc1ccccc1)NC(=O)CCC(=O)O)C(=O)N1CCC[C@H]1C(=O)N[C@@H](CCC(=O)O)C(=O)N[C@@H](Cc1ccc(O)cc1)C(=O)N[C@@H](Cc1ccc(O)cc1)C(=O)NCCCO [(N)] (Suc-FEPIPEYY-{NH(3-hydroxypropyl)}),84.9,–
"CC[C@H](C)[C@H](NC(=O)[C@@H]1CCCN1C(=O)[C@H](CCC(=O)O)NC(=O)[C@H](Cc1ccccc1)NC(=O)[C@H](CC(=O)O)NC(=O)CNC(=O)CCC(=O)O)C(=O)N1CCC[C@H]1C(=O)N[C@@H](CCC(=O)O)C(=O)N[C@@H](Cc1ccc(OS(=O)(=O)O)cc1)C(=O)N[C@@H](Cc1ccc(OS(=O)(=O)O)cc1)C(=O)N[C@@H](CC(C)C)C(=O)N[C@@H](CCC(N)=O)C(N)=O [Sulfated form of (D), Suc--Gly--Asp--Phe--Glu--Pro--Ile--Pro--Glu--Tyr(SO3 H)--Tyr(SO3 H)--Leu--Gln--NH2] (Suc-GDFEPIPE[sY][sY]LQ-NH2)",0.0669,57.07
CCNC(=O)[C@H](CC(C)C)NC(=O)[C@H](Cc1ccc(O)cc1)NC(=O)[C@H](Cc1ccc(O)cc1)NC(=O)[C@H](CCC(=O)O)NC(=O)[C@@H]1CCCN1C(=O)[C@@H](NC(=O)[C@@H]1CCCN1C(=O)[C@H](CCC(=O)O)NC(=O)[C@H](Cc1ccccc1)NC(=O)CCC(=O)O)[C@@H](C)CC [(R)] (Suc-FEPIPEYYL-NHEt),27.8,0.18
"CC[C@H](C)[C@H](NC(=O)[C@@H]1CCCN1C(=O)[C@H](CCC(=O)O)NC(=O)[C@H](Cc1ccccc1)NC(=O)CCC(=O)O)C(=O)N1CCC[C@H]1C(=O)N[C@@H](CCC(=O)O)C(=O)N[C@@H](Cc1ccc(OS(=O)(=O)O)cc1)C(=O)N[C@@H](Cc1ccc(OS(=O)(=O)O)cc1)C(=O)NCCCCC(=O)O [Sulfated form of (L), Suc--Phe--Glu--Pro--Ile--Pro--Glu--Tyr(SO3 H)--Tyr(SO3 H)--NH(CH2)4 COOH] (Suc-FEPIPE[sY][sY][Ava]-OH)",2.22,–
"CC[C@H](C)[C@H](NC(=O)[C@@H]1CCCN1C(=O)[C@H](CCC(=O)O)NC(=O)[C@H](Cc1ccccc1)NC(=O)CCC(=O)O)C(=O)N1CCC[C@H]1C(=O)N[C@@H](CCC(=O)O)C(=O)N[C@@H](Cc1ccc(OS(=O)(=O)O)cc1)C(=O)N[C@@H](Cc1ccc(OS(=O)(=O)O)cc1)C(=O)N[C@@H](CC(C)C)C(=O)N[C@@H](CCCCCC(N)=O)C(N)=O [Sulfated form of (X), Suc--Phe--Glu--Pro--Ile--Pro--Glu--Tyr(SO2 H)--Tyr(SO3 H)--Leu--(L)Asu(NH2)NH2] (Suc-FEPIPE[sY][sY]L[Asu](NH2)-NH2)",2,–
